The target in the assay is T1, IK1 (Kir2.1) (Homo sapiens, UniProt P63252).
T1 construct: endogenous in cells; host or cells: freshly isolated human atrial myocytes
T1 sequence (P63252 1-427): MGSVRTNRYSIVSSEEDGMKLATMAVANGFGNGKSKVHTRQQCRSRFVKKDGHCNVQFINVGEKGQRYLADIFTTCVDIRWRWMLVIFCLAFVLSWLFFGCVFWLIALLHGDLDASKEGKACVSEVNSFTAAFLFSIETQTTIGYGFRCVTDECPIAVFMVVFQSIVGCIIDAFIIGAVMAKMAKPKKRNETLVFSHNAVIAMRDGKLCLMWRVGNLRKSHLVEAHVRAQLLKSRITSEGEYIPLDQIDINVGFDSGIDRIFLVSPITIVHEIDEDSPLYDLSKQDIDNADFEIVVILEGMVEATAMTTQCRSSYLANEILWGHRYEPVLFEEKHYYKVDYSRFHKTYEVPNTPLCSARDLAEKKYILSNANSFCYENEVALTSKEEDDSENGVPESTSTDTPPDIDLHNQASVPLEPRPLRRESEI
The experiment in a line: Whole-cell patch clamp in human atrial myocytes: IK1. Format: cell-based. Conditions: n = 3 cells. How it is done:
The blocking profile of the compounds of the invention is determined on the following channels of the human atrial myocytes: INa, Ito, Isus and IK1 channel currents.
Human atrial myocytes: Myocytes were prepared from specimens with grossly normal anatomical aspect, excised from hearts of patients with normal P-wave electrocardiogram, undergoing bypass surgery. Human atrial sample were obtained following approval by the ethical committee. […]
Experiments were performed at room temperature (20-25° C.) for INa and at 32-34° C. for Ito, Isus, IK1. Currents were measured using the whole-cell variant of the patch clamp method. […]
After rupture of the cell membrane to enter the whole-cell mode, current amplitude and kinetics were allowed to stabilize for 3-7 min before initiating the experimental procedure. K^+ currents recorded from human atrial myocytes were elicited by a 500 ms pulse to +60 mV from a holding potential of −50 mV for Ito and Isus. Ito was measured as a peak current amplitude whereas Isus as a current present at the end of the 500 ms voltage pulse. In addition, the area under the curve, before and after compound, were measured over the course of the pulse period. […]
A general note: In patch-clamp work, channel activity is measured electrically.

On to `COc1ccccc1Nc1nc(C)c(C(=O)N[C@H]2CCC[C@@H]2OCc2ccccc2)s1` [Compound 68, 2-(2-methoxy-phenylamino)-4-methyl-thiazole-5-carboxylic acid (1S,2S)-2-(benzyloxycyclopent-1-yl) amide], for which the “Block at 10 μM in %: IK1 (Kir2.1)” value was −2.7 ± 2.0%.

Values taken from US20080125432A1 (Devgen NV, priority 2004, published 2008).
